Molecules are shown by their SMILES. Activity calls are given as the source filed them. No cut-off for these calls is given here.

For test [1], the system named is Umbelopsis ramanniana. In words: Antimicrobial activity against Mortierella ramanniana. It counts as functional, organism-based.
Test [2] deals with Escherichia coli. In words: Antimicrobial activity against Escherichia coli at 50 ug/disk. As to conditions: read-out: IZ. Format: functional.
The test system of test [3] is Escherichia coli. In words: Antimicrobial activity against Escherichia coli by […]. It counts as functional, organism-based.

In the case of `CCCCCCCC(C)CCCCCCCCOC[C@@H](O)COP(=O)(O)O[C@@H]1[C@@H](O)[C@H](O)[C@@H](O)[C@H](O)[C@@H]1O` (some centres undefined), in test [1], the result was inactive. In test [2], the zone of inhibition at 50 µg/disc is 12 mm.
`CCCCCCC1C(C)C1CCCCCCCOC[C@@H](O)COP(=O)(O)O[C@@H]1[C@@H](O)[C@H](O)[C@@H](O)[C@H](O)[C@@H]1O` (some centres undefined): in test [1], the result was inactive. For the same molecule, in test [3], the outcome was Active.

For the origin of these results see ChEMBL document CHEMBL1155698, “Two new antimicrobial lysoplasmanylinositols from the marine sponge Theonella swinhoei” (2001).
